Reference: patent US20250114387A1, “PHARMACEUTICAL COMPOSITION COMPRISING ENAVOGLIFLOZIN FOR PREVENTING OR TREATING OBESITY IN CANINE ANIMALS” (DAEWOONG PHARMACEUTICAL CO., LTD., priority 2022, published 2025)

Assays:
[1] = system: obese dogs; assay: Clinical trial in obese dogs: serum biochemical parameters; type: in vivo; conditions: for ALB / ALP / ALT / AST / BUN / CPK / CRE / GGT / Glu / TC / TP / TG: serum
Experimental: (§1) A total of 20 dogs were selected and divided into 4 groups with 5 dogs in each group: a normal obese control (OC); hereinafter, referred to as a control (OC)), an enavogliflozin 0.2-administered group, an enavogliflozin 0.5-administered group, and an enavogliflozin 1-administered group. The control was fed regular feed, and the enavogliflozin-administered groups were fed regular feed supplemented with enavogliflozin at doses of 0.2, 0.5, or 1 mg/kg, respectively. The feed was supplemented with enavogliflozin once a day for 8 weeks and given orally.
Biological analysis was performed as follows. A portion of the blood collected on the day of the test was transferred to a vacuum tube containing a coagulation activator, left at room temperature for 15 to 20 minutes to solidify, and then centrifuged at 3000 rpm, thereby obtaining serum. Serum biochemical parameters were evaluated using a Hitachi 7180 device (Hitachi, Tokyo, Japan). The evaluated biochemical parameters are aspartate aminotransferase (AST), alanine aminotransferase (ALT), alkaline phosphatase (ALP), creatine phosphokinase (CPK), total bilirubin (TBIL), glucose (GLU), total cholesterol (TC), triglycerides (TG), total protein (TP), albumin (ALB), gamma-glutamyl transpeptidase (GGT), blood urea nitrogen (BUN), creatinine (CRE), inorganic phosphorus (IP), calcium (Ca), and C-reactive protein (CRP).

[2] = system: obese dogs; assay: Clinical trial in obese dogs: hematological tests; type: in vivo
Experimental: as §1
Hematological tests were performed on the day before the first administration of enavogliflozin and once every two weeks for the next 10 weeks. A portion of the blood collected on the day of the test was stored in a CBC tube containing the anticoagulant EDTA-2K to assess a red blood cell (RBC) count, hematocrit (Hct), a hemoglobin (Hb) concentration, a white blood cell (WBC) count, and a platelet (PLT) count using an automated hematology analyzer (ADVIA 2120i™, Siemens Healthcare Diagnostics, Vienna, Austria).

[3] = obese dogs, 0.2 mg/kg once a day oral for 8 weeks
[4] = obese dogs, 0.5 mg/kg once a day oral for 8 weeks
[5] = obese dogs, 1 mg/kg once a day oral for 8 weeks
[6] = 0.2 mg/kg once a day oral for 8 weeks
[7] = 0.5 mg/kg once a day oral for 8 weeks
[8] = 1 mg/kg once a day oral for 8 weeks

ALB [1, 3]: 3.48 ± 0.42 g/dL
TP [1, 3]: 6.78 ± 0.66 g/dL
ALB [1, 4]: 2.95 ± 0.19 g/dL
TP [1, 4]: 6.43 ± 0.32 g/dL
ALB [1, 5]: 2.92 ± 0.29 g/dL
TP [1, 5]: 6.14 ± 0.54 g/dL
Hb [2, 6]: 16.34 ± 2.68 g/dL
Hct [2, 6]: 49.86 ± 7.08%
Platelet [2, 6]: 392.20 ± 11.16 ×10^3/μL
RBC [2, 6]: 6.92 ± 0.79 ×10^6 μL
WBC [2, 6]: 11.12 ± 3.69 ×10^3 μL
Hb [2, 7]: 16.40 ± 0.70 g/dL
Hct [2, 7]: 50.26 ± 1.94%
Platelet [2, 7]: 307.40 ± 6.02 ×10^3/μL
WBC [2, 7]: 7.75 ± 2.04 ×10^3 μL
Hb [2, 8]: 16.16 ± 2.15 g/dL
Hct [2, 8]: 46.76 ± 6.13%
Platelet [2, 8]: 299.10 ± 7.65 ×10^3/μL
RBC [2, 8]: 6.55 ± 1.08 ×10^6 μL
WBC [2, 8]: 10.01 ± 3.35 ×10^3 μL
hematological indicators, differences between the administration groups ([2]; 10-week trial period, except for the platelet (PLT) count): no significant differences
Structure (SMILES): OC[C@H]1O[C@@H](c2cc(Cc3ccc(C4CC4)cc3)c(Cl)c3c2CCO3)[C@H](O)[C@@H](O)[C@@H]1O [Enavogliflozin, enavogliflozin]
C-reactive protein (CRP) compared to the control (OC) ([1]; obese dogs, 0.2 mg/kg): significantly decreased
alanine aminotransferase (ALT) compared to the control (OC) ([1]; obese dogs, 0.2 mg/kg): significantly decreased
alkaline phosphatase (ALP) compared to the control (OC) ([1]; obese dogs, 0.2 mg/kg): significantly decreased
creatine phosphokinase (CPK) compared to the control (OC) ([1]; obese dogs, 0.2 mg/kg): significantly decreased
serum gamma-glutamyl transpeptidase (GGT) compared to the control (OC) ([1]; obese dogs, 0.2 mg/kg): significantly decreased
serum total cholesterol (TC) compared to the control (OC) ([1]; obese dogs, 0.2 mg/kg): lower than those of the control (OC)
triglyceride (TG) concentration compared to the control (OC) ([1]; obese dogs, 0.2 mg/kg): lower than those of the control (OC)
glucose (GLU) concentration compared to the control (OC) ([1]; obese dogs, 1 mg/kg): significantly lower
serum triglyceride (TG) concentrations compared to the control ([1]; obese dogs, 0.2, 0.5 and 1 mg/kg groups): significantly lower than that of the control
fasting glucose compared to the control (OC) ([1]; obese dogs, all administration groups): decreased compared to the control (OC)
ALP [1, 3]: 84.60 ± 63.96 IU/L
ALT [1, 3]: 18.84 ± 4.00 IU/L
AST [1, 3]: 31.00 ± 1.83 IU/L
BUN [1, 3]: 18.70 ± 10.29 mg/dL
CPK [1, 3]: 111.12 ± 30.97 IU/L
CRE [1, 3]: 0.78 ± 0.21 mg/dL
GGT [1, 3]: 7.80 ± 1.64 IU/L
Glu [1, 3]: 107.20 ± 10.85 mg/dL
TC [1, 3]: 183.84 ± 36.01 mg/dL
TG ([1]; obese dogs, 0.2 mg/kg once a day oral for 8 weeks, 0.2 mg/kg): 142.00 ± 95.55 mg/dL
TG ([1]; obese dogs, 0.2 mg/kg once a day oral for 8 weeks, listed as enavogliflozin, 0.2 mg/kg): 142.00 ± 95.55 mg/dL
ALP [1, 4]: 146.20 ± 121.67 IU/L
ALT [1, 4]: 36.80 ± 14.43 IU/L
AST [1, 4]: 31.84 ± 12.92 IU/L
BUN [1, 4]: 22.25 ± 8.64 mg/dL
CPK [1, 4]: 136.50 ± 42.99 IU/L
CRE [1, 4]: 0.82 ± 0.15 mg/dL
GGT [1, 4]: 9.46 ± 5.37 IU/L
Glu [1, 4]: 97.77 ± 10.19 mg/dL
TC [1, 4]: 298.00 ± 71.14 mg/dL
TG ([1]; obese dogs, 0.5 mg/kg once a day oral for 8 weeks, 0.5 mg/kg): 133.86 ± 70.19 mg/dL
TG ([1]; obese dogs, 0.5 mg/kg once a day oral for 8 weeks, listed as enavogliflozin, 0.5 mg/kg): 133.86 ± 70.19 mg/dL
ALP [1, 5]: 186.20 ± 184.59 IU/L
ALT [1, 5]: 38.60 ± 19.72 IU/L
AST [1, 5]: 110.00 ± 167.92 IU/L
BUN [1, 5]: 23.44 ± 13.17 mg/dL
CPK [1, 5]: 260.40 ± 126.79 IU/L
CRE [1, 5]: 0.92 ± 0.36 mg/dL
GGT [1, 5]: 21.60 ± 29.36 IU/L
Glu [1, 5]: 94.00 ± 13.47 mg/dL
TC [1, 5]: 309.00 ± 129.40 mg/dL
TG ([1]; obese dogs, 1 mg/kg once a day oral for 8 weeks, 1 mg/kg): 282.60 ± 419.03 mg/dL
TG ([1]; obese dogs, 1 mg/kg once a day oral for 8 weeks, listed as enavogliflozin, 1 mg/kg): 282.60 ± 419.03 mg/dL
platelet (PLT) count compared to the control (OC) ([2]; 1 mg/kg, p<0.05): significantly lower than that of the control (OC)
